Results as given in US8652087B2, “Method for use of microdialysis” (priority 2009, dated 2014).

Assays:
red blood cells = conditions: in the first 1-2 minutes; cited from earlier work
[1] = at 37° C.; cited from earlier work
[2] = Charcoal MTZ adsorption kinetics study (PMD and direct donor sampling); type: physicochemical; conditions: 37° C., first minute after charcoal addition
Description: A charcoal suspension was prepared at least 24 hours before use by adding 0.6 g of activated charcoal (Sigma Chemical, St. Louis, Mo.) to 100 mL of 0.6% Dextran Solution (Birkmeier et al., 1995). A donor solution of MTZ in 0.005N NaOH was made with an initial concentration of C0=200 μg/mL and volume of 48 mL. A probe was immersed in the solution, and PMD was started before adding the charcoal using a dialysate that initially contained no MTZ. Samples were collected every 10 seconds, using a resting time of 8 seconds, a flow rate of 100 μL/min, and a sample volume of 5 μL. After collecting at least six samples, 2 mL of the charcoal suspension was quickly (in 1-2 seconds) mixed into 48 mL of stirred MTZ solution, giving a final volume of 50 mL. […] Samples were collected during 10 second intervals, and the start times for the sampling intervals were 0, 0.2, 0.4, 0.7, 1, 2, 5, 10 and 30 minutes. The flow rate was 100 μL/min, the rest time was 8 seconds, and the sample volume was 5 μL. The samples were immediately analyzed using HPLC. […] Direct sampling of the donor was also done at various times for comparison with the PMD data. The direct donor samples were immediately filtered to remove the activated charcoal and analyzed using HPLC.

[3] = Benzocaine release from self-emulsifying microemulsion systems by PMD; type: physicochemical; conditions: occupying the probe window for one minute; Tween 20:Cremophor EL:peppermint oil systems diluted 1:25 in water
Description: The medium outside the probe served as the receiver in this case. Before the PMD experiments, various anhydrous liquid systems were made, to be used to release benzocaine. In all cases, two surfactants, Tween 20 and Cremophor EL (both from Sigma Chemical, St. Louis, Mo.), were blended in a 2:1 (weight:weight) ratio. Various amounts of peppermint oil were added (from 0 to 30% oil by weight) to make the anhydrous systems. Benzocaine (50 mg per gram of peppermint oil) was subsequently added to each system, and stirring was done until all benzocaine was dissolved and distributed within the oil and surfactant blend. These anhydrous systems were then diluted 1:25 in water, and used as the dialysate. A probe was immersed in 50 mL of water (which served as the receiver) that initially contained no drug. Since benzocaine is a weak base, various pH values were used, but the pH of the water and dialysate were the same in all cases. The dialysate (containing the microemulsions and acting as the donor) was pumped into the probe window, allowed to remain at rest for various resting times (5-100 seconds), pumped out and collected, and subsequently assayed for benzocaine content to determine the fraction of benzocaine lost as a function of the total time in the probe window. The flow rate Q was 100 μL/min and the sample volume was 5 μL.

SMILES | decrease of buffer concentration by uptake into red blood cells (red blood cells) | diffusion coefficient (value of the reference drug) [1] | decline of concentration during the first minute [2] | benzocaine lost from microemulsion dialysate [3]
CC(=O)/N=c1/sc(S(N)(=O)=O)nn1C [MTZ, methazolamide] | 50% | 4×10^−6 cm^2/s | ~50% | 
CCOC(=O)c1ccc(N)cc1 [benzocaine] |  |  |  | ≤ 90%
